According to PMC7601674, “CoQ10 Deficient Endothelial Cell Culture Model for the Investigation of CoQ10 Blood–Brain Barrier Transport” (Journal of Clinical Medicine, 2020):

What was measured:
[1] = design: method as in PMID 17482886, PMID 22272129; conditions: after oral-supplementation in vivo; cited from earlier work
[2] = system: CoQ10 deficient human neuroblastoma cells; design: method as in PMID 24534273; conditions: treatment with 10 μmol/L CoQ10; cited from earlier work
[3] = CoQ10 partition in serum lipoprotein fractions; type: in vitro ADME, bovine; conditions: for CoQ10 content in HDL fraction / CoQ10 content in LDL fraction: n = 3; for CoQ10 content in vLDL fraction: calculated by subtraction
Protocol: Bovine plasma-derived serum (BPDS) was either untreated or supplemented with 10 µM CoQ10 for 45 min at 37 °C. Serum lipoproteins were then fractionated according to the method of Ononogbu et al. and the CoQ10 content measured in each fraction by LC-MS/MS. This lipoprotein fraction method is comprised of two parallel precipitation-centrifugation extractions, yielding a separation of the major classes of lipoprotein as supernatants containing “LDL + HDL” and “HDL”. The concentration of CoQ10 in the “VLDL” fraction was calculated by subtraction.

[4] = design: method as in PMID 9671775; conditions: diet supplemented with 200 mg/kg CoQ10 for 2 months; cited from earlier work
[5] = system: primary porcine brain endothelial cells (PBEC) monolayer; assay: CoQ10 transport assay across PBEC monolayer on Transwell filters; conditions: for Transport to the Basal side, percentage of Apical compartment: A to B, no serum pre-incubation
Protocol: Primary porcine brain endothelial cells (PBEC) were isolated and cultured as previously published. Briefly, cells were seeded at 10 × 10^4 cells/cm^2 on collagen and fibronectin-coated polycarbonate Transwell filters (Corning 0.4 µm pore size) in 12-well plates, and grown in low glucose DMEM (Sigma D5546) supplemented with bovine plasma-derived serum (10% v/v; BPDS, First Link UK), glutamine (2 mM), heparin (125 µg/mL), penicillin (100 U/mL) and streptomycin (100 µg/mL), at 37 °C in a 5% CO2 incubator. PBECs were grown in non-contact co-culture above primary rat astrocytes until confluent, then supplemented with hydrocortisone (550 nM), 8-4-chlorophenylthio-cAMP (250 µM) and RO-20-1724 (17.5 µM) in serum-free medium for a further 3 days. Before assays of CoQ10 transport, PBECs were separated from astrocytes by moving transwell filters to fresh culture plates.
(§1) Unless stated, CoQ10 was pre-treated by incubation in serum at a concentration of 20 µM for 45 min at 37 °C, and added to assay buffer on either the Apical (blood facing) or Basal (brain facing) side of the cells on Transwell filters. The final concentration of CoQ10 used in the assays was 10 µM in serum (50% v/v). Cells were then incubated for 60 min on an orbital shaker (100 rpm) at 37 °C. Samples of the Apical (A) and Basal (B) media were then taken for analysis to calculate A to B (blood-to-brain) or B to A (brain-to-blood) Papp in cm/s, as previously described by Patabendige et al.. CoQ10 concentrations were determined using the LC-MS/MS method described above (Section 2.2).
(§2) Inhibitors of transport were added to both Apical and Basal sides of the cells for 2 h prior to assay. Antioxidants were pre-incubated with CoQ10 in serum for 45 min prior to assay, and were present in the assay buffer. Compounds used were; SR-B1 inhibitor, blocker of lipid transport-1 (BLT-1; 10 µmol/L)

ataxic symptoms = system: ataxic symptoms; design: method as in PMID 22490322; conditions: cerebellar ataxic phenotype, following CoQ10 supplementation; cited from earlier work
[6] = design: method as in PMID 16647250; conditions: high-dose (1000–5000 mg/kg) CoQ10; cited from earlier work
[7] = system: bEnd.3 cells (mouse BBB cell line) monolayer; assay: CoQ10 transport assay across bEnd.3 monolayer on Transwell filters (control or pABA treated)
Protocol: as §1, §2
As previously described, para-aminobenzoic acid (pABA) was used as a pharmacological reagent to induce CoQ10 deficiency. The mechanism of action is via competitive inhibition of polyprenyl-4-hydroxybenzoate transferase (Coq2p), a key enzyme in the later stages of the CoQ10 biosynthetic pathway. Following the method of Duberley et al., 1 mmol/L pABA was added to culture medium for 5 days prior to assay.

[8] = serum supplemented with 10 μmol/L CoQ10
[9] = serum supplemented with 10 μmol/L CoQ10, 45 min

- Supplemented CoQ10 recovered in the vLDL/LDL fractions ([3]; serum supplemented with 10 µM CoQ10): More than 92%
- % of CoQ10 in HDL fraction [3, 8]: 7.2%
- % of CoQ10 in LDL fraction [3, 8]: 63.8%
- % of CoQ10 in vLDL fraction [3, 8]: 29%
- CoQ10 content in HDL fraction [3, 9]: 762 ± 8.1 nmol/L
- CoQ10 content in LDL fraction [3, 9]: 6718 ± 103.5 nmol/L
- CoQ10 content in vLDL fraction [3, 8]: 3060 ± 138.8 nmol/L
- Serum endogenous CoQ10 content ([3]; untreated cell culture serum): 147.5 ± 0.5 nM
- % of CoQ10 in HDL fraction ([3]; untreated serum): 21.7%
- % of CoQ10 in LDL fraction ([3]; untreated serum): 77.7%
- % of CoQ10 in vLDL fraction ([3]; untreated serum): 0.6%
- CoQ10 content in HDL fraction ([3]; untreated serum): 32.7 ± 1.8 nmol/L
- CoQ10 content in LDL fraction ([3]; untreated serum): 117.0 ± 1.2 nmol/L
- CoQ10 content in vLDL fraction ([3]; untreated serum): 0.9 ± 0.01 nmol/L
- Transport to the Basal side, percentage of Apical compartment ([5]; 30 min): undetectable
- Transport to the Basal side, percentage of Apical compartment ([5]; after 2 h, n = 4): 0.51 ± 0.15%
- Increase of transport across PBEC monolayer after pre-incubation in serum ([5]; CoQ10 pre-incubated 45 min in serum (BPDS) vs no serum): 4 fold
- Effect of serum pre-incubation on Papp (A to B and B to A) ([5]; PBEC, 60 min): enhanced transport in both directions
- Transport across monolayer after pABA treatment vs control ([5]; PBEC, pABA 1 mM 5 days): increased transport
- Effect of serum pre-incubation on Papp (A to B and B to A) ([7]; bEnd.3, 60 min): enhanced transport in both directions
- NET CoQ10 Apical to Basal Papp (A to B Papp - B to A Papp) ([7]; bEnd.3, Control): -0.02 ×10⁻⁶ cm/s
- NET CoQ10 Apical to Basal Papp (A to B Papp - B to A Papp) ([7]; bEnd.3, LDLR inhib (RAP 0.5 µM)): 0.1 ×10⁻⁶ cm/s
- NET CoQ10 Apical to Basal Papp (A to B Papp - B to A Papp) ([7]; bEnd.3, P-gp inhib (verapamil 0.1 mM)): -0.04 ×10⁻⁶ cm/s
- NET CoQ10 Apical to Basal Papp (A to B Papp - B to A Papp) ([7]; bEnd.3, RAGE inhib (FPS-ZM1 1 µM)): -0.08 ×10⁻⁶ cm/s
- NET CoQ10 Apical to Basal Papp (A to B Papp - B to A Papp) ([7]; bEnd.3, SR-B1 inhib (BLT-1 10 µM)): -0.13 ×10⁻⁶ cm/s
- Transport across monolayer after pABA treatment vs control ([7]; bEnd.3, pABA 1 mM 5 days): increased transport
Structure (SMILES): COC1=C(OC)C(=O)C(C/C=C(\C)CC/C=C(\C)CC/C=C(\C)CC/C=C(\C)CC/C=C(\C)CC/C=C(\C)CC/C=C(\C)CC/C=C(\C)CC/C=C(\C)CCC=C(C)C)=C(C)C1=O [CoQ10, Coenzyme Q10]
- Highest achievable CoQ10 plasma concentration [1]: 10.7 µmol/L
- MRC function [2]: restores MRC function
- Increase in cerebral cortex CoQ10 and CoQ9 [4]: 30%
- Patients with improvement/stabilisation in ataxic symptoms (ataxic symptoms): 49%
- Brain levels of CoQ10 and CoQ9 [6]: significantly increased in brain levels of CoQ10 and CoQ9
